Earlier results, collected in patent US6071534A, “Multivesicular liposomes with controlled release of active agents encapsulated in the presence of a hydrochloride” (priority 1998, dated 2000).

Settings: after IP, IV, IT, IA, IM or SC dose

Compound: Nc1ccn([C@@H]2O[C@H](CO)[C@@H](O)[C@@H]2O)c(=O)n1 [cytarabine, cytosine arabinoside]
- half-life: very short
